PubChem BioAssay (NCI)
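Where inhibition never reached the appropriate level, the endpoint shown equals the highest concentration tested. Otherwise, values were interpolated linearly from a five-concentration, 48-hour dose response in 96-well plates. TGI: concentration producing complete growth inhibition.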

What was measured:
Assay in all cases: inhibition of tumour cell growth, NCI panel, 48 h
CAKI-1 renal = system: CAKI-1 renal
SW-620 colon = system: SW-620 colon
SF-539 CNS = system: SF-539 CNS
OVCAR-5 ovarian = system: OVCAR-5 ovarian
SF-295 CNS = system: SF-295 CNS
BT-549 breast = system: BT-549 breast
SK-OV-3 ovarian = system: SK-OV-3 ovarian
COLO 205 colon = system: COLO 205 colon
IGROV1 ovarian = system: IGROV1 ovarian
SF-268 CNS = system: SF-268 CNS
UACC-62 melanoma = system: UACC-62 melanoma
NCI-H226 lung = system: NCI-H226 lung
EKVX NSCLC = system: EKVX NSCLC
OVCAR-8 ovarian = system: OVCAR-8 ovarian
SN12C renal = system: SN12C renal
SK-MEL-2 melanoma = system: SK-MEL-2 melanoma
A549 NSCLC = system: A549 NSCLC
NCI/ADR-RES ovarian = system: NCI/ADR-RES ovarian
SNB-75 CNS = system: SNB-75 CNS
LOX IMVI melanoma = system: LOX IMVI melanoma
SK-MEL-28 melanoma = system: SK-MEL-28 melanoma
HCT-116 colon = system: HCT-116 colon
RXF 393 renal = system: RXF 393 renal
U251 CNS = system: U251 CNS
HOP-62 NSCLC = system: HOP-62 NSCLC
MALME-3M melanoma = system: MALME-3M melanoma
HT29 colon = system: HT29 colon
SK-MEL-5 melanoma = system: SK-MEL-5 melanoma
HS 578T breast = system: HS 578T breast
HCT-15 colon = system: HCT-15 colon
NCI-H460 lung = system: NCI-H460 lung
HL-60(TB) leukemia = system: HL-60(TB) leukemia
NCI-H522 lung = system: NCI-H522 lung
UACC-257 melanoma = system: UACC-257 melanoma
RPMI-8226 leukemia = system: RPMI-8226 leukemia
SR leukemia = system: SR leukemia
MDA-N = system: MDA-N
K-562 leukemia = system: K-562 leukemia
CCRF-CEM leukemia = system: CCRF-CEM leukemia
T-47D breast = system: T-47D breast
PC-3 prostate = system: PC-3 prostate
KM12 colon = system: KM12 colon
MDA-MB-231 breast = system: MDA-MB-231 breast
A498 renal = system: A498 renal
MDA-MB-435 = system: MDA-MB-435
NCI-H23 lung = system: NCI-H23 lung
DU-145 prostate = system: DU-145 prostate
786-0 renal = system: 786-0 renal
OVCAR-3 ovarian = system: OVCAR-3 ovarian
HOP-92 NSCLC = system: HOP-92 NSCLC
OVCAR-4 ovarian = system: OVCAR-4 ovarian
SNB-19 CNS = system: SNB-19 CNS
ACHN renal = system: ACHN renal
MCF7 breast = system: MCF7 breast
M14 melanoma = system: M14 melanoma
TK-10 renal = system: TK-10 renal

Work on `N#CC1CNC(N)NC1N` (stereo unspecified) yielded a TGI (CAKI-1 renal) of over 100 µM, a TGI (SW-620 colon) of over 100 µM and a TGI (SF-539 CNS) of over 100 µM. It also gave a TGI (OVCAR-5 ovarian) of over 100 µM, a TGI (SF-295 CNS) of over 100 µM and a TGI (BT-549 breast) of over 100 µM. For the same molecule, the TGI (SK-OV-3 ovarian) was over 100 µM, the TGI (COLO 205 colon) was over 100 µM and the TGI (IGROV1 ovarian) was over 100 µM. For the same molecule, the TGI (SF-268 CNS) was over 100 µM, the TGI (UACC-62 melanoma) was over 100 µM and the TGI (NCI-H226 lung) was over 100 µM. The TGI (EKVX NSCLC) was over 100 µM, the TGI (OVCAR-8 ovarian) was over 100 µM and the TGI (SN12C renal) was over 100 µM. For the same molecule, the TGI (SK-MEL-2 melanoma) was over 100 µM, the TGI (A549 NSCLC) was over 100 µM and the TGI (NCI/ADR-RES ovarian) was over 100 µM. It also gave a TGI (SNB-75 CNS) of over 100 µM, a TGI (LOX IMVI melanoma) of over 100 µM and a TGI (SK-MEL-28 melanoma) of over 100 µM. It also gave a TGI (HCT-116 colon) of over 100 µM, a TGI (RXF 393 renal) of over 100 µM and a TGI (U251 CNS) of over 100 µM. It also gave a TGI (HOP-62 NSCLC) of over 100 µM, a TGI (MALME-3M melanoma) of over 100 µM and a TGI (HT29 colon) of over 100 µM. It also gave a TGI (SK-MEL-5 melanoma) of over 100 µM, a TGI (HS 578T breast) of over 100 µM and a TGI (HCT-15 colon) of over 100 µM. For the same molecule, the TGI (NCI-H460 lung) was over 100 µM, the TGI (HL-60(TB) leukemia) was over 100 µM and the TGI (NCI-H522 lung) was over 100 µM. It also gave a TGI (UACC-257 melanoma) of over 100 µM, a TGI (RPMI-8226 leukemia) of over 100 µM and a TGI (SR leukemia) of over 100 µM. For the same molecule, the TGI (MDA-N) was over 100 µM, the TGI (K-562 leukemia) was over 100 µM and the TGI (CCRF-CEM leukemia) was 34.6 µM. The TGI (T-47D breast) was over 100 µM, the TGI (PC-3 prostate) was over 100 µM and the TGI (KM12 colon) was over 100 µM. The TGI (MDA-MB-231 breast) was over 100 µM, the TGI (A498 renal) was over 100 µM and the TGI (MDA-MB-435) was over 100 µM. The TGI (NCI-H23 lung) was over 100 µM, the TGI (DU-145 prostate) was over 100 µM and the TGI (786-0 renal) was over 100 µM. For the same molecule, the TGI (OVCAR-3 ovarian) was over 100 µM, the TGI (HOP-92 NSCLC) was over 100 µM and the TGI (OVCAR-4 ovarian) was over 100 µM. It also gave a TGI (SNB-19 CNS) of over 100 µM, a TGI (ACHN renal) of over 100 µM and a TGI (MCF7 breast) of over 100 µM. The TGI (M14 melanoma) was over 100 µM and the TGI (TK-10 renal) was over 100 µM.
